Laboratory results: US20250257060A1, “OXADIAZOLE COMPOUND, PHARMACEUTICAL COMPOSITION COMPRISING SAME, AND USE THEREOF” (SUZHOU GENHOUSE BIO CO., LTD., priority 2022, published 2025)
Read-outs that look alike come from different tables or passages of the source. Values belong to the molecule of their own block, whether it stands above or below them.

Experiments:
HDAC6 = HDAC6 (Homo sapiens (Human), UniProt Q9UBN7); assay: HDAC6 enzymatic activity assay; format: biochemical
Procedure: The inhibitory activity of the compounds of the present application against HDAC6 was evaluated by an enzymatic activity assay. HDAC6 (Abcam), test compounds, and a 20 µM substrate solution (Ac-GAK(Ac)-AMC) were each added to a 384-well plate, and the plate was incubated at 37° C. for 30 min. […] and […] were added, and the plate was incubated at room temperature for 15 min. […] IC50 was obtained by fitting using GraphPadPrism 7.0 software.

[1] = Brain-to-blood drug concentration ratio of mice; format: in vivo; details: mouse, 5 mg/kg PO, 2 h; for Kp at 2 h: brain/plasma
Procedure: On the day of administration, mice were weighed for actual body weight and the administration volume was calculated. In each group of 9 mice, the compound was administered by single intravenous (IV) injection or intragastric (PO) administration. Whole blood samples were collected via the orbit at prescribed time points. After blood sample collection, the samples were immediately transferred to labeled commercial sample tubes containing K2-EDTA (0.85-1.15 mg), followed by centrifugation (3200×g, 4° C., 10 min) and plasma collection. The plasma was transferred to a pre-cooled centrifuge tube, frozen in dry ice, and stored in an ultra-low temperature freezer at −60° C. or lower until the LC-MS/MS analysis. 20 μL of a plasma sample or brain tissue homogenate was taken and 80 μL of an internal standard solution (50 ng/mL solution of propafenone in acetonitrile) was added. The plate was sealed with a film sealer at 165° C., shaken on a micro oscillator (maximum vibration speed) for 10 min, and centrifuged at 4000 rpm for 20 min using a low-speed benchtop centrifuge, 10 μL of supernatant was transferred and 90 μL of acetonitrile was added. The mixture was vortexed and mixed well, and then the plate was sealed with the film sealer at 165° C. After the mixture was vortexed and mixed well, 1 μL of supernatant was taken for LC-MS/MS analysis. Plasma drug concentration data for the compounds were processed in a non-compartmental model using WinNonlin Version 6.3 (Pharsight, Mountain View, CA) pharmacokinetic software. The relevant pharmacokinetic parameters were calculated by a linear logarithmic trapezoid method.
Data processing: brain-to-blood drug concentration ratio of mice at the same time point=drug concentration in brain tissue/drug concentration in plasma

[2] = tested on: acetylation level of α-tubulin in HCT116 cells; assay: Assay on acetylation level of α-tubulin, HCT116 cells; format: cell-based; details: Homo sapiens, HCT-116, 6 h
Procedure: A375/HCT116/HCC827 cells at a logarithmic growth phase were taken, digested with a […] (trypsin), centrifuged, counted, and plated in a 96-well plate at an appropriate cell density (30,000 cells/well) at 100 µL/well, and an appropriate amount of PBS was added around the plate for water sealing. The next day, the cells were treated with the compounds at different concentrations (starting at 100 μM, 5-fold dilution, 9 concentration gradients). After 6 h, the medium was pipetted out and the cells were washed twice with 100 μL of PBST. The cells were then immobilized in 4% paraformaldehyde, and the plate was incubated at room temperature for 20 min. The stationary liquid was discarded and the cells were washed with PBST. 150 μL of special blocking buffer (containing 1% Triton-100) was added to each well for blocking at room temperature for 2 h, and the plate was washed with PBS to remove excess blocking buffer. α-tubulin (DM1A) mouse mAb and acetyl-α-tubulin (Lys40) (D20G3) XP rabbit mAb were diluted at a 1:2000 ratio with a blocking buffer containing 0.033% Triton-100. The dilutions were added to the 96-well plate and the plate was incubated overnight at 4° C. Meanwhile, a blank control group was set. The next day, the plate was washed twice with PBST. Secondary anti-mouse IgG (H+L) (DyLight™ 680 conjugate) and anti-rabbit IgG (H+L) (DyLight™ 800 conjugate) were diluted at a 1:2000 ratio with a blocking buffer containing 0.033% Triton-100. The dilutions were added to a 96-well plate and the plate was incubated at room temperature for 2 h. The plate was washed twice with PBST and once with PBS. Fluorescence signals at 700 nm and 800 nm were detected with a Li-COR Odyssey two-color near-infrared laser imager.

[3] = Phase I metabolic stability in mouse liver microsomes (MLMs); format: in vitro ADME, CD-1 mice; details: MLM
Procedure: (§1) Phase I metabolic stability of the test compounds in liver microsomes of CD-1 mice (MLMs), Sprague-Dawley rats (RLMs), beagle dogs (DLMs), cynomolgus monkeys (CLMs), and humans (HLMs) was evaluated.
(§2) The animal and human liver microsomes used in the test system were purchased from Xenotech, Corning, or other qualified suppliers and stored in a freezer at a temperature below −60° C. prior to use.
(§3) The test samples and control compounds were separately incubated with animal and human liver microsomes at 37±1° C. for a period of incubation time up to 60 min. The samples were removed at the indicated time points, and the reaction was stopped with acetonitrile or other organic solvents containing an internal standard. After centrifugation, the resulting supernatants were assayed by liquid chromatography-tandem mass spectrometry (LC-MS/MS).
(§4) 73.21 g of dipotassium hydrogenphosphate trihydrate and 10.78 g of potassium dihydrogenphosphate were dissolved in 4000 mL of ultrapure water. The solution was adjusted to pH 7.40±0.10 with 10% phosphoric acid or 1 M potassium hydroxide to make a final concentration of 100 mM.
(§5) The test sample powder was prepared into a stock solution at a certain concentration with DMSO or other organic solvents, which was then further diluted with a proper organic solvent.
(§6) Microsomes of each species were diluted into a 2× working solution with a 100 mM potassium phosphate buffer. The final concentration of the microsomes in the reaction system was 0.5 mg/mL.
(§7) An appropriate amount of nicotinamide adenine dinucleotide phosphate (NADP) and isocitric acid (ISO) powder was weighed out, dissolved in a magnesium chloride solution, and shaken and mixed well. An appropriate amount of isocitrate dehydrogenase (IDH) was added, and the mixture was mixed well by gently turning upside down. The final concentrations in the reaction system were: 1 mM NADP, 1 mM magnesium chloride, 6 mM ISO, and 1 unit/mL IDH.
(§8) Incubation was performed in a 96-well plate. Eight incubation plates were prepared and designated T0, T5, T15, T30, T45, T60, Blank60, and NCF60, respectively. The first 6 plates corresponded to reaction time points of 0, 5, 15, 30, 45, and 60 min, respectively. No test sample or control compound was added to the Blank60 plate, and samples were taken after 60 min of incubation. In the NCF60 plate, incubation was performed for 60 min using the potassium phosphate buffer instead of the NADPH regeneration system solution. Three replicates were made for samples in all conditions.
(§9) The microsomes and the test sample or control compound were mixed, and then the incubation plates Blank60, T5, T15, T30, T45, and T60 except for TO and NCF60 were placed in a 37° C. water bath for pre-incubation for about 10 min. In the incubation plate TO, a stop solution was first added, followed by addition of the NADPH regeneration system working solution, and 98 μL of the potassium phosphate buffer was added to each sample well of the incubation plate NCF60 to initiate the reaction. After the pre-incubations of the incubation plates Blank60, T5, T15, T30, T45, and T60 were completed, 98 μL of the NADPH regeneration system working solution was added to each sample well to initiate the reaction. The reaction temperature was 37±1° C., the final volume of the reaction was 200 μL, and the reaction system included 0.5 mg/mL microsomes, […], 1 mM NADP, 6 mM ISO, and 1 unit/mL IDH.
(§10) At 5 min, 15 min, 30 min, 45 min, and 60 min, a cold stop solution containing an internal standard was added to the reaction plate to stop the reaction.
(§11) All the reaction plates after the reaction was stopped were shaken well and centrifuged at 3220×g at 4° C. for 20 min. After the supernatant was diluted according to a certain proportion, LC-MS/MS analysis was performed.
(§12) Sample analysis was performed by the liquid chromatography-tandem mass spectrometry (LC-MS/MS) method without standard curves and quality control samples. […]

[4] = Pharmacokinetic test in mice (IV and PO); format: in vivo, BALB/c mice; details: for Cmax / AUC(0-inf) / AUC(0-t) / MRT inf / Vd / Tmax: BALB/c, mouse, plasma; for MRT inf: read-out: MRT(0-∞); for Vd: read-out: Vz
Procedure: In this example, the pharmacokinetic behavior of the compounds after intravenous injection (IV) and intragastric (PO) administration in BALB/c mice was tested.
On the day of administration, mice were weighed for actual body weight and the administration volume was calculated. Each compound was tested in two groups with 3 mice in each group, one group administered by single intravenous injection and the other group of mice by single intragastric administration. Whole blood samples were collected via the orbit at prescribed time points (0.25 h, 0.5 h, 1 h, 2 h, 4 h, 8 h, and 24 h after administration). After blood sample collection, the samples were immediately transferred to labeled commercial sample tubes containing K2-EDTA (0.85-1.15 mg), followed by centrifugation (3200×g, 4° C., 10 min) and plasma collection. The plasma was transferred to a pre-cooled centrifuge tube, frozen in dry ice, and stored in an ultra-low temperature freezer at −60° C. or lower until the LC-MS/MS analysis.
Plasma concentrations were determined by a LC-MS/MS method. Plasma drug concentration data for compounds 1 and 2 were processed in a non-compartmental model using WinNonlin Version 6.3 (Pharsight, Mountain View, CA) pharmacokinetic software. The relevant pharmacokinetic parameters were calculated by a linear logarithmic trapezoid method.

[5] = Phase I metabolic stability in human liver microsomes (HLMs); format: in vitro ADME, humans; details: HLM
Procedure: as §1, §2, §3, §4, §5, §6, §7, §8, §9, §10, §11, §12

[6] = Phase I metabolic stability in rat liver microsomes (RLMs); format: in vitro ADME, Sprague-Dawley rats; details: RLM
Procedure: as §1, §2, §3, §4, §5, §6, §7, §8, §9, §10, §11, §12

[7] = brain, read-out: Brain drug concentration
[8] = plasma, read-out: Blood drug concentration
[9] = CD-1, mouse, liver microsomes, pH 7.4
[10] = buffer instead of NADPH regeneration system, 60 min
[11] = human, liver microsomes, pH 7.4
[12] = Sprague-Dawley, rat, liver microsomes, pH 7.4

Sequence of HDAC6 (Q9UBN7 whole entry): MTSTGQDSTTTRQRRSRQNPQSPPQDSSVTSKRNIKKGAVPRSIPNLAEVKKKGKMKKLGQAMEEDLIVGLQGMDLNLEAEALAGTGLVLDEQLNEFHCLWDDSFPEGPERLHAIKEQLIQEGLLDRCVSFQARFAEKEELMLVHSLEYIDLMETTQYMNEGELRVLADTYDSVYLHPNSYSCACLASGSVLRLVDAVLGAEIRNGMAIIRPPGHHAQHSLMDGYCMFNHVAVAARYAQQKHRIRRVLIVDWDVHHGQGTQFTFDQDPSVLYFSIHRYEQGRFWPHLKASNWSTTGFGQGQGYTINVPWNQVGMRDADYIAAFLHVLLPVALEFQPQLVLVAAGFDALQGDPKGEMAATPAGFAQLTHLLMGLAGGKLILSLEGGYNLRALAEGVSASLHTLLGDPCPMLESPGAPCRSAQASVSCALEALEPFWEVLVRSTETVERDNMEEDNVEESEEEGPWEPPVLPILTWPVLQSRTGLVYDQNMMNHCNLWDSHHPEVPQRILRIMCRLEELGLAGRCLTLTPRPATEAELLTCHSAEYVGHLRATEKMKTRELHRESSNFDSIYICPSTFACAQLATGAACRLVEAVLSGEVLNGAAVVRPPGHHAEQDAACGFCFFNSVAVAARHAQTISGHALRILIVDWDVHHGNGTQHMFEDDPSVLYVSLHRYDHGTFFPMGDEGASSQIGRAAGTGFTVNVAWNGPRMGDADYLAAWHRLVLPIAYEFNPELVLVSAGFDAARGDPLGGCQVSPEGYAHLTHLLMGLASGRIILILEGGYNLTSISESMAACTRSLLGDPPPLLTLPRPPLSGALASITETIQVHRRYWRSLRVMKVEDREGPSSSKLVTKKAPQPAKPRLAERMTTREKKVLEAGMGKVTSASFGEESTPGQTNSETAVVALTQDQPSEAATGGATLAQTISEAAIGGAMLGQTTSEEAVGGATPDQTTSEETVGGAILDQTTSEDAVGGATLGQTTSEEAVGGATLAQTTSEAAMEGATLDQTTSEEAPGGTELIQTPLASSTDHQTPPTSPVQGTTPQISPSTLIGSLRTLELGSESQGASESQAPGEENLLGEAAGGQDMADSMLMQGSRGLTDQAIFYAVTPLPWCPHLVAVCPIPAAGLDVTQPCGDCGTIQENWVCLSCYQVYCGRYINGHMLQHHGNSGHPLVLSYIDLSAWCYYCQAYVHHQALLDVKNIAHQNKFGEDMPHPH

IC50 (HDAC6): 154 nM
concentration at 2 h [1, 7]: 190 ng/mL
Kp at 2 h [1]: 0.08
concentration at 2 h [1, 8]: 2260 ng/mL
Structure (SMILES): O=S(=O)(N[C@@H]1CCCC[C@H]1N1Cc2ccc(-c3nnc(C(F)F)o3)cc2S1(=O)=O)C1CC1 [Compound 4]

EC50 [2]: 467 nM
Structure (SMILES): O=C(N[C@@H]1CCOC[C@H]1N1Cc2ccc(-c3nnc(C(F)F)o3)cc2S1(=O)=O)C1(C(F)(F)F)CC1 [Compound 65]

EC50 [2]: 322 nM
Structure (SMILES): O=C(N[C@@H]1CCOC[C@H]1N1Cc2ccc(-c3nnc(C(F)F)o3)cc2S1(=O)=O)C(F)(F)C(F)(F)F [Compound 66]

CLint scaled at 1 µM [3, 9]: 41.4 mL/min/kg
half-life at 1 M [3, 9]: 2.2 h
Remaining rate (NCF = 60 min) [3, 10]: 84.39%
Remaining rate (T = 60 min) ([3]; with NADPH, 60 min): 72.27%
Cmax ([4]; po, 10 mg/kg, read-out: C0/Cmax): 12 µM
AUC(0-inf) ([4]; mice, IV 2 mg/kg): 8.78 µM·h
AUC(0-t) ([4]; mice, IV 2 mg/kg): 8.61 µM·h
Cmax ([4]; mice, IV 2 mg/kg (C0)): 5.27 µM
MRT inf ([4]; mice, IV 2 mg/kg): 2.06 h
Vd ([4]; mice, IV 2 mg/kg): 1.01 L/kg
AUC(0-inf) ([4]; mice, PO 10 mg/kg): 63.7 µM·h
AUC(0-t) ([4]; mice, PO 10 mg/kg): 50.5 µM·h
Tmax ([4]; mice, PO 10 mg/kg): 0.5 h
MRT inf ([4]; mice, PO 10 mg/kg): 4.57 h
CLz ([4]; mice, IV 2 mg/kg): 7.82 mL/min/kg
t½z ([4]; mice, IV 2 mg/kg): 1.493 h
F ([4]; mice, PO 10 mg/kg): 117.4%
t½z ([4]; mice, PO 10 mg/kg): 3.323 h
Remaining rate (NCF = 60 min) [5, 10]: 84.68%
Remaining rate (T = 60 min) ([5]; with NADPH, 60 min): 82.70%
CLint scaled at 1 µM [5, 11]: 6.43 mL/min/kg
half-life at 1 M [5, 11]: 4.51 h
Remaining rate (NCF = 60 min) [6, 10]: 88.49%
Remaining rate (T = 60 min) ([6]; with NADPH, 60 min): 36.99%
CLint scaled at 1 µM [6, 12]: 58.6 mL/min/kg
half-life at 1 M [6, 12]: 0.706 h
Structure (SMILES): O=S1(=O)c2cc(-c3nnc(C(F)F)o3)ccc2CN1C(c1ccccn1)[C@H](O)c1ccccn1 (stereo partly drawn) [Compound 83]

Cmax ([4]; po, 5 mg/kg, read-out: C0/Cmax): 3.41 µM
AUC(0-inf) ([4]; mice, IV 1 mg/kg): 1.08 µM·h
AUC(0-t) ([4]; mice, IV 1 mg/kg): 1.07 µM·h
Cmax ([4]; mice, IV 1 mg/kg (C0)): 2.11 µM
MRT inf ([4]; mice, IV 1 mg/kg): 0.6 h
Vd ([4]; mice, IV 1 mg/kg): 1.9 L/kg
AUC(0-inf) ([4]; mice, PO 5 mg/kg): 4.57 µM·h
AUC(0-t) ([4]; mice, PO 5 mg/kg): 4.56 µM·h
Tmax ([4]; mice, PO 5 mg/kg): 0.5 h
MRT inf ([4]; mice, PO 5 mg/kg): 1.2 h
CLz ([4]; mice, IV 1 mg/kg): 33.3 mL/min/kg
t½z ([4]; mice, IV 1 mg/kg): 0.7 h
F ([4]; mice, PO 5 mg/kg): 84.4%
t½z ([4]; mice, PO 5 mg/kg): 0.7 h
IC50 (HDAC6): 133 nM
concentration at 2 h [1, 7]: 27 ng/mL
Kp at 2 h [1]: 0.11
concentration at 2 h [1, 8]: 252 ng/mL
Structure (SMILES): CN(C)C(=O)N[C@@H]1CCCC[C@H]1N1Cc2ccc(-c3nnc(C(F)F)o3)cc2S1(=O)=O [Compound 93]

IC50 (HDAC6): 325 nM
Structure (SMILES): O=C(NCC1CC1)N[C@@H]1CCCC[C@H]1N1Cc2ccc(-c3nnc(C(F)F)o3)cc2S1(=O)=O [Compound 110]

IC50 (HDAC6): 141 nM
Structure (SMILES): O=C(N[C@@H]1CCCC[C@H]1N1Cc2ccc(-c3nnc(C(F)F)o3)cc2S1(=O)=O)N1CCCC1 [Compound 112]

IC50 (HDAC6): 173 nM
Structure (SMILES): O=S1(=O)c2cc(-c3nnc(C(F)F)o3)ccc2CN1[C@@H]1CCCC[C@H]1NS(=O)(=O)C(F)(F)F [Compound 116]

IC50 (HDAC6): 449 nM
Structure (SMILES): O=S1(=O)c2cc(-c3nnc(C(F)F)o3)ccc2CN1c1ccccc1-c1ccccn1 [Compound 117]
